Experimental data reported in ChEMBL document CHEMBL1201862, “PubChem BioAssay data set” (2004).
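The compound was tested at five concentrations on cells cultured in 96-well plates, with a 48-hour exposure period. GI50 is the concentration that inhibits growth by half.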 Activity calls are given as the source filed them. No stated cut-off is given here; in the data, active = GI50 up to about 1.1 µM and inactive = higher.

Legend:
Assay in all cases: NCI tumour cell line growth inhibition, 48 h
A498 = test system: A498
K562 = test system: K562
OVCAR-3 = test system: OVCAR-3
RPMI-8226 = test system: RPMI-8226
CCRF-CEM = test system: CCRF-CEM
HCC 2998 = test system: HCC 2998
EKVX = test system: EKVX
SN12C = test system: SN12C
HT-29 = test system: HT-29
786-0 = test system: 786-0
HL-60 = test system: HL-60
SF-295 = test system: SF-295
SF-268 = test system: SF-268
NCI-H522 = test system: NCI-H522
LOX IMVI = test system: LOX IMVI
UACC-62 = test system: UACC-62
MCF7 = test system: MCF7
MDA-MB-231 = test system: MDA-MB-231
NCI/ADR-RES = test system: NCI/ADR-RES
HCT-15 = test system: HCT-15

Structure (SMILES)	GI50 (A498)	GI50 (K562)	GI50 (OVCAR-3)	GI50 (RPMI-8226)	GI50 (CCRF-CEM)	GI50 (HCC 2998)	GI50 (EKVX)	GI50 (SN12C)	GI50 (HT-29)	GI50 (786-0)	GI50 (HL-60)	GI50 (SF-295)	GI50 (SF-268)	GI50 (NCI-H522)	GI50 (LOX IMVI)	GI50 (UACC-62)	GI50 (MCF7)	GI50 (MDA-MB-231)	GI50 (NCI/ADR-RES)	GI50 (HCT-15) [µM]
N=C1CSC2=NC3=C(CCC/C3=C\c3ccccc3)C(c3ccccc3)N12 (configuration not stated)	13.9 µM (inactive)	3.21 µM (inactive)	2.72 µM (inactive)	2.16 µM (inactive)	2.24 µM (inactive)	3.31 µM (inactive)	2.62 µM (inactive)	11.5 µM (inactive)	2.97 µM (inactive)	5.65 µM (inactive)	2.34 µM (inactive)	5.85 µM (inactive)	11.8 µM (inactive)	2.61 µM (inactive)	2.26 µM (inactive)	9.23 µM (inactive)				
CC1=N[C@@](C)(C2CC3C=CC2C3=O)COC1=O (some centres not stated)	> 100 µM (inactive)	> 100 µM (inactive)	> 100 µM (inactive)		> 100 µM (inactive)	> 100 µM (inactive)	> 100 µM (inactive)	> 100 µM (inactive)	> 100 µM (inactive)	> 100 µM (inactive)	> 100 µM (inactive)	> 100 µM (inactive)	> 100 µM (inactive)	> 100 µM (inactive)		> 100 µM (inactive)	> 100 µM (inactive)	> 100 µM (inactive)		
COC[C@@H](/N=C/c1ccc(OC)cc1)C(C)C		> 100 µM (inactive)		> 100 µM (inactive)	> 100 µM (inactive)		> 100 µM (inactive)	> 100 µM (inactive)	> 100 µM (inactive)	> 100 µM (inactive)		> 100 µM (inactive)	> 100 µM (inactive)	> 100 µM (inactive)	> 100 µM (inactive)	> 100 µM (inactive)	> 100 µM (inactive)		> 100 µM (inactive)	> 100
O=S(=O)(CC1=NC2C=CC=CC2N=C1)NCc1ccccc1 (configuration not stated)	> 100 µM (inactive)	> 100 µM (inactive)	83.2 µM (inactive)	> 100 µM (inactive)	> 100 µM (inactive)	0.0156 µM (active)	> 100 µM (inactive)	> 100 µM (inactive)	> 100 µM (inactive)	> 100 µM (inactive)	69.5 µM (inactive)	> 100 µM (inactive)	> 100 µM (inactive)	76.2 µM (inactive)	> 100 µM (inactive)	> 100 µM (inactive)				81.7
COc1cc2c(c(O)c1OC)C(=O)C(Cc1ccc(O)cc1)CO2 (configuration not stated)		13.1 µM (inactive)	9.4 µM (inactive)	16.6 µM (inactive)	24.5 µM (inactive)			36.3 µM (inactive)	75.7 µM (inactive)	32.9 µM (inactive)	29.2 µM (inactive)	5.46 µM (inactive)	32.4 µM (inactive)	3.27 µM (inactive)	34.1 µM (inactive)	32.4 µM (inactive)	2.33 µM (inactive)	22.9 µM (inactive)	10.5 µM (inactive)	11.2
O=c1[nH]c(=O)n(CCOc2ccccc2)cc1Nc1ccccc1	> 100 µM (inactive)	> 100 µM (inactive)	> 100 µM (inactive)	> 100 µM (inactive)	> 100 µM (inactive)	> 100 µM (inactive)	> 100 µM (inactive)	> 100 µM (inactive)	> 100 µM (inactive)	61.2 µM (inactive)		41.8 µM (inactive)	43.3 µM (inactive)	6.11 µM (inactive)	> 100 µM (inactive)	> 100 µM (inactive)	> 100 µM (inactive)		> 100 µM (inactive)	> 100
C=C(Br)CNC(=O)Nc1ccc(Cl)c(Cl)c1	9.12 µM (inactive)	23.8 µM (inactive)	13.4 µM (inactive)	17.3 µM (inactive)	19.3 µM (inactive)	18.5 µM (inactive)	28.1 µM (inactive)	25.2 µM (inactive)	25.1 µM (inactive)	16 µM (inactive)	15.9 µM (inactive)	26 µM (inactive)	27.3 µM (inactive)	18.6 µM (inactive)	19.7 µM (inactive)	18.8 µM (inactive)		15.2 µM (inactive)	16.6 µM (inactive)	30.5
O=S1(=O)OCCOS(=O)(=O)C1(Br)Cc1ccccc1	> 100 µM (inactive)	> 100 µM (inactive)	> 100 µM (inactive)	> 100 µM (inactive)	> 100 µM (inactive)	> 100 µM (inactive)	> 100 µM (inactive)	> 100 µM (inactive)	> 100 µM (inactive)	> 100 µM (inactive)	> 100 µM (inactive)	> 100 µM (inactive)	> 100 µM (inactive)	> 100 µM (inactive)	> 100 µM (inactive)	> 100 µM (inactive)				> 100
Cc1ccccc1-n1c(N)c(-c2nc3ccccc3[nH]2)sc1=S	40.1 µM (inactive)	36.6 µM (inactive)	20 µM (inactive)	23.1 µM (inactive)	36.5 µM (inactive)	18.3 µM (inactive)	53.5 µM (inactive)	26.4 µM (inactive)	19.6 µM (inactive)	30.1 µM (inactive)	26.1 µM (inactive)	22.6 µM (inactive)	29.6 µM (inactive)	21.3 µM (inactive)	28.1 µM (inactive)	18.8 µM (inactive)				34.7
COC(=O)[C@@H]1[C@H](O)[C@H](C)[C@H](O)[C@H](C)/C=C\C=C(\C)C(=O)Nc2c(C)c(OC(C)=O)c3c(c2O)C(=O)C(C)=C2OCOC(=C23)/C(C)=C/[C@@H](O)[C@H](O)[C@@H](C)[C@H]1OC(C)=O		52.7 µM (inactive)		15.5 µM (inactive)	44.9 µM (inactive)		> 100 µM (inactive)	36.8 µM (inactive)	31.3 µM (inactive)	> 100 µM (inactive)	5.36 µM (inactive)	> 100 µM (inactive)	78.2 µM (inactive)		40 µM (inactive)		26.2 µM (inactive)	92.9 µM (inactive)		
C#Cc1c(C)c(/C=C/C(C)=C/C(=O)OC)n(C)c1C	> 100 µM (inactive)	24.2 µM (inactive)	> 100 µM (inactive)	40.3 µM (inactive)	51.9 µM (inactive)	59 µM (inactive)	> 100 µM (inactive)	> 100 µM (inactive)	58.1 µM (inactive)	> 100 µM (inactive)	12.1 µM (inactive)	> 100 µM (inactive)	79.3 µM (inactive)	71.8 µM (inactive)	> 100 µM (inactive)	94.6 µM (inactive)				95.3
Cc1cnc2sn(-c3ccc(Oc4ccccc4)cc3)c(=O)c2c1			6.11 µM (inactive)	9.62 µM (inactive)	5.11 µM (inactive)	6.47 µM (inactive)	13.4 µM (inactive)	17.9 µM (inactive)	18.2 µM (inactive)	10.7 µM (inactive)	4.36 µM (inactive)	15.5 µM (inactive)	11.8 µM (inactive)	5.58 µM (inactive)	6.1 µM (inactive)	10.3 µM (inactive)	22.4 µM (inactive)	20.5 µM (inactive)	21.7 µM (inactive)	7.38
C=C1C(=O)OC2C1CC[C@H](C)C13OC(=O)CC1[C@@]23C (some centres not stated)	> 100 µM (inactive)	> 100 µM (inactive)	> 100 µM (inactive)	> 100 µM (inactive)	> 100 µM (inactive)	> 100 µM (inactive)	> 100 µM (inactive)	> 100 µM (inactive)	> 100 µM (inactive)	> 100 µM (inactive)	> 100 µM (inactive)	> 100 µM (inactive)	> 100 µM (inactive)	48.3 µM (inactive)		> 100 µM (inactive)				
O=C(NCCCCNc1cccccc1=O)OCc1ccccc1	> 100 µM (inactive)	> 100 µM (inactive)	> 100 µM (inactive)	> 100 µM (inactive)	> 100 µM (inactive)	> 100 µM (inactive)	> 100 µM (inactive)	> 100 µM (inactive)	> 100 µM (inactive)	> 100 µM (inactive)	> 100 µM (inactive)	> 100 µM (inactive)	> 100 µM (inactive)	> 100 µM (inactive)	> 100 µM (inactive)	> 100 µM (inactive)				> 100
N=C(N)NS(=O)(=O)c1ccc(Nc2c3ccccc3nc3c(C(=O)Nc4ccc(S(N)(=O)=O)cc4)ccc(Cl)c23)cc1	> 100 µM (inactive)	> 100 µM (inactive)	> 100 µM (inactive)	> 100 µM (inactive)		> 100 µM (inactive)	> 100 µM (inactive)	> 100 µM (inactive)	> 100 µM (inactive)	> 100 µM (inactive)	47.8 µM (inactive)	> 100 µM (inactive)	> 100 µM (inactive)	> 100 µM (inactive)	> 100 µM (inactive)	> 100 µM (inactive)				> 100
CC(CC=O)Nc1nn2c(=O)c3ccccc3nc2s1 (configuration not stated)	> 100 µM (inactive)	> 100 µM (inactive)	> 100 µM (inactive)	> 100 µM (inactive)	> 100 µM (inactive)	> 100 µM (inactive)	> 100 µM (inactive)	> 100 µM (inactive)	> 100 µM (inactive)	> 100 µM (inactive)		> 100 µM (inactive)	> 100 µM (inactive)	> 100 µM (inactive)	> 100 µM (inactive)	43.1 µM (inactive)	> 100 µM (inactive)		> 100 µM (inactive)	> 100
CC(C)CCC[C@@H](C)[C@H]1CCC2C3CC=C4C[C@@H](Oc5c6ccccc6nc6ccccc56)CCC4C3CCC21 (some centres not stated)		> 50 µM (inactive)	> 50 µM (inactive)		> 50 µM (inactive)		> 50 µM (inactive)	> 50 µM (inactive)	> 50 µM (inactive)	> 50 µM (inactive)	> 50 µM (inactive)	> 50 µM (inactive)	> 50 µM (inactive)	36.4 µM (inactive)	> 50 µM (inactive)	> 50 µM (inactive)		39.9 µM (inactive)	> 50 µM (inactive)	> 50
